From patent US8729109B2, “3-(4-(5-phenyl-1 ,2,4-oxadiazol-3-yl)phenoxy)propan-2-ol derivatives as sphingosine-1phosphate receptors modulators” (Allergan, Inc., priority 2011, dated 2014)

Legend:
human S1P1 receptor = target: T1, human S1P1 receptor (Homo sapiens, UniProt P21453); experiment: GTP γ35S binding assay, S1P1 activity; assay type: biochemical; details: membranes of cells stably expressing S1P1 receptor, agonist potency
T1 construct: expressed in transfected cells; membranes used
Experimental: Compounds were synthesized and tested for S1P1 activity using the GTP γ^35S binding assay. These compounds may be assessed for their ability to activate or block activation of the human S1P1 receptor in cells stably expressing the S1P1 receptor.
GTP γ^35S binding was measured in the medium containing (mM) HEPES 25, pH 7.4, MgCl2 10, NaCl 100, dithitothreitol 0.5, digitonin 0.003%, 0.2 nM GTP γ^35S, and 5 μg membrane protein in a volume of 150 μl. Test compounds were included in the concentration range from 0.08 to 5,000 nM unless indicated otherwise. Membranes were incubated with 100 μM 5′-adenylylimmidodiphosphate for 30 min, and subsequently with 10 μM GDP for 10 min on ice. Drug solutions and membrane were mixed, and then reactions were initiated by adding GTP γ^35S and continued for 30 min at 25° C. Reaction mixtures were filtered over Whatman GF/B filters under vacuum, and washed three times with 3 mL of ice-cold buffer (HEPES 25, pH 7.4, MgCl2 10 and NaCl 100). Filters were dried and mixed with scintillant, and counted for ^35S activity using a β-counter. Agonist-induced GTP γ^35S binding was obtained by subtracting that in the absence of agonist. Binding data were analyzed using a non-linear regression method. In case of antagonist assay, the reaction mixture contained 10 nM […] in the presence of test antagonist at concentrations ranging from 0.08 to 5000 nM.

lymphocytes in the blood = experiment: Lymphopenia assay in mice; assay type: in vivo; details: female C57BL6 mice, 10 mg/Kg subcutaneously, after 96 h of drug application (FIG. 1)
Experimental: Lymphopenia Assay in Mice
Compound 1, 5-{3-[3-chloro-4-(2,3-dihydroxypropoxy)phenyl]-1,2,4-oxadiazol-5-yl}-2-isopropoxybenzonitrile, was prepared in a solution containing 3% (w/v) 2-hydroxy propyl β-cyclodextrin (HPBCD) and 1% DMSO to a final concentration of 1 mg/ml, and subcutaneously injected to female C57BL6 mice (CHARLES RIVERS) weighing 20-25 g at the dose of 10 mg/Kg. Blood samples were obtained by puncturing the submandibular skin with a Goldenrod animal lancet at 24, 48, 72, and 96 hrs post drug application. Blood was collected into microvettes (SARSTEDT) containing EDTA tripotassium salt. Lymphocytes in blood samples were counted using a HEMAVET Multispecies Hematology System, HEMAVET HV950FS (Drew Scientific Inc.). (Hale, J. et al Bioorg. & Med. Chem. Lett. 14 (2004) 3351).The results are presented in FIG. 1: the number of lymphocytes in the blood was reduced by Compound 1 after 96 h of drug application.

T1 sequence (P21453 whole entry): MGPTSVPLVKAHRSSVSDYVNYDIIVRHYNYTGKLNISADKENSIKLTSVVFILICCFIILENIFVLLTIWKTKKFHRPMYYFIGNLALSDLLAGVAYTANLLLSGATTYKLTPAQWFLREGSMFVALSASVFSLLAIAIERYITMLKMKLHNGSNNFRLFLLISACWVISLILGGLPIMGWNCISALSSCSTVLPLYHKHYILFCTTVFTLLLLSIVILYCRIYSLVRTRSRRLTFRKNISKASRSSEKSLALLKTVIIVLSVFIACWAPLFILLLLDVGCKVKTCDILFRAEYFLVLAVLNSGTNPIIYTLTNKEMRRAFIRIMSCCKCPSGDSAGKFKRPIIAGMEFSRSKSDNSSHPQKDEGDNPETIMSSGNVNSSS

Row | EC50 (human S1P1 receptor) [nM] | SMILES | number of lymphocytes in the blood (lymphocytes in the blood)
1 | 10.3 | CC(C)Oc1ccc(-c2nc(-c3ccc(OCC(O)CO)c(Cl)c3)no2)cc1C#N (centres unmarked) [Compound 1, 5-{3-[3-chloro-4-(2,3-dihydroxypropoxy)phenyl]-1,2,4-oxadiazol-5-yl}-2-isopropoxybenzonitrile] | reduced
2 | 20.4 | COP(=O)(O)OCC(O)COc1ccc(-c2noc(-c3ccc(OC(C)C)c(C#N)c3)n2)cc1Cl (centres unmarked) [Compound 3, 3-{2-chloro-4-[5-(3-cyano-4-isopropoxyphenyl)-1,2,4-oxadiazol-3-yl]phenoxy}-2-hydroxypropyl methyl hydrogen phosphate] | 
3 | 4580 | CC(C)Oc1ccc(-c2nc(-c3ccc(OCC(O)COP(=O)(O)O)c(Cl)c3)no2)cc1C#N (centres unmarked) [Compound 4, 3-{2-chloro-4-[5-(3-cyano-4-isopropoxyphenyl)-1,2,4-oxadiazol-3-yl]phenoxy}-2-hydroxypropyl dihydrogen phosphate] | 

Row | SMILES | EC50 (human S1P1 receptor) [nM] | number of lymphocytes in the blood (lymphocytes in the blood)
4 | COP(=O)(OC)OCC(O)COc1ccc(-c2noc(-c3ccc(OC(C)C)c(C#N)c3)n2)cc1Cl (centres unmarked) [Compound 2, 3-{2-chloro-4-[5-(3-cyano-4-isopropoxyphenyl)-1,2,4-oxadiazol-3-yl]phenoxy}-2-hydroxypropyl dimethyl phosphate] | 2.88 | 
